Source: US20180168157A1, “ANTIMICROBIAL COMPOSITIONS COMPRISING FOOD APPROVED ANTIMICROBIALS AND ZINC PYRITHIONE” (Janssen Pharmaceutica NV, priority 2015, published 2018)

How the values were obtained:
Type in all cases: cell-based
[1] = system: Escherichia coli LMG 8063; test: Poison plate assay (MIC and synergy index), Escherichia coli; conditions: ppm total active ingredient, nutrient broth pH 6.8, 28° C., evaluation 7 days after inoculation
Text: (§1) Experiment 1: Poison Plate Assay
(§2) In the test combinations above, product A is component (I), i.e. zinc pyrithione, and product B is a component (II), i.e. either sodium sulfite (II-a) or lysozyme (II-b).
(§3) Concentration series of total actives: a series of 24 concentrations increasing with steps of ⅓:0.27-0.35-0.47-0.63-0.84-1.13-1.50-2.00-2.67-3.56-4.75-6.33-8.44-11.25-15.00-20.00-26.70-35.60-47.46-63.28-84.38-112.50-150.00-200.00 ppm. • Culture medium: bacteria: nutrient broth (3 g beef extract and 5 g peptone in 1 liter deionised water, pH=6.8.) • Experimental set up: 96-well plates containing 300 μl pf inoculum plus 0.75 μl of a 400× concentrated stock solution of the test compounds per well. • Species of test organisms: Escherichia coli LMG 8063 • Staphylococcus aureus LMG 8195/ATCC 6538P • Inoculum: the nutrient medium is inoculated with an actively growing liquid culture of the test bacteria. • Culture conditions: 28° C., 70% relative humidity, incubation in darkness. • Evaluation: 7 days after inoculation. […]

[2] = system: Staphylococcus aureus LMG 8195/ATCC 6538P; test: Poison plate assay (MIC and synergy index), Staphylococcus aureus; conditions: ppm total active ingredient, nutrient broth pH 6.8, 28° C., evaluation 7 days after inoculation
Text: as §1, §2, §3

[3] = system: Saccharomyces cerevisiae CBS 8803; test: Poison plate assay (MIC and synergy index), Saccharomyces cerevisiae; conditions: ppm total active ingredient, half strength potato dextrose broth, 28° C., evaluation 7 days after inoculation
Text: wherein: • QA is the concentration of compound A in ppm, acting alone, which produced an end point (e.g. MIC), • Qa is the concentration of compound A in ppm, in the mixture, which produced an end point (e.g. MIC), • QB is the concentration of compound B in ppm, acting alone, which produced an end point (e.g. MIC), • Qb is the concentration of compound B in ppm, in the mixture, which produced an end point (e.g. MIC).
When the Synergy Index is greater than 1.0, antagonism is indicated. When the SI is equal to 1.0, additivity is indicated.

Row | Molecule | MIC-values in ppm (minimum inhibitory concentration) [1] [ppm] | MIC-values in ppm (minimum inhibitory concentration) [2] [ppm] | MIC-values in ppm (minimum inhibitory concentration) [3] [ppm]
1 | [O-][n+]1ccccc1[S][Zn][S]c1cccc[n+]1[O-] [zinc pyrithione, bis(2-pyridylthio)zinc 1,1′dioxide] | 3.60 | 2.00 | 2.00
2 | O=S([O-])O.[Na+] [sodium bisulfite] |  |  | 267
3 | O=S([O-])[O-].[Na+].[Na+] [sodium sulfite] | 267 |  | 
4 | lysozyme |  | 267 | 
